From patent publication US7829560B2, “1,4-disubstituted naphthalenes as inhibitors of P38 MAP kinase” (Arqule, Inc., priority 2004, dated 2010)
“And” between values parts separate entries of the source, which are not always exact repeats. Identical values can stand only once.

Target: T1, p38α (Homo sapiens, UniProt Q16539)
T1 construct: p38 MAP Kinases are recombinant human full-length proteins with an amino-terminal GST fusion; GST (N); purchased Upstate Biotechnology Inc; host or cells: E. coli
T1 sequence (Q16539 whole entry, the tested form may be a part): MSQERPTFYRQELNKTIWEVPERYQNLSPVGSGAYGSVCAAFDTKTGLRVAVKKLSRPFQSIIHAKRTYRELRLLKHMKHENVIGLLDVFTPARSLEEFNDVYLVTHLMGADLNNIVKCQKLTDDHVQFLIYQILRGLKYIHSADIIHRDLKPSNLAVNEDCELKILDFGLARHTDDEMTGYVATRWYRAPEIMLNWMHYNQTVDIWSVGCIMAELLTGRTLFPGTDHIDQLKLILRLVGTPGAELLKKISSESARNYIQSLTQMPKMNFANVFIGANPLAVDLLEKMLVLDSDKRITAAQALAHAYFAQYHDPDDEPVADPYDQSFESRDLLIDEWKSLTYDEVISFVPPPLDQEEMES
Experiment: p38 MAP Kinase assay: inhibition of ATF2 phosphorylation, ELISA
Format: biochemical
Details: for IC50: ATF2 phosphorylation, read-out: [ENZ] P38 ALPHA, IC50, ELISA; for inhibition at 10 µM: substrate ATF2, read-out: [ENZ] P38 ALPHA, PCT INH, ELISA (10 uM;ATF2) (Percent)
Description: Compounds of the invention are screened for the ability to inhibit ATF2 phosphorylation by p38 MAP Kinase in vitro. The ability of compounds to inhibit ATF2 phosphorylation in this in vitro assay is correlated with the inhibition of p38 MAP Kinase and TNFα expression in vivo, and is therefore an indicator of potential in vivo therapeutic activity (Raingeaud, J., et al, J. Biol. Chem., 270: 7420-7426, 1995, Brinkman, M. N., et al, J. Biol. Chem. 274: 30882-30886, 1999 and Fuchs, S. Y. et al, J. Biol. Chem. 275: 12560-12564, 2000).
Materials: All kinases and the substrate ATF2 are acquired from Upstate Biotechnology Inc. p38 MAP Kinases are recombinant human full-length proteins with an amino-terminal GST fusion, expressed in and purified from E. coli. ATF2 is a GST fusion protein containing amino acids 19-96 of human ATF2 expressed in E. coli. All proteins are aliquoted and stored at −80° C.
Methods: p38 MAP Kinase assays are performed using an assay buffer containing 25 mM HEPES, pH 7.5, 10 mM MgCl2, 2 mM DTT, 20 mM β-glycerophosphate, 0.1 mM Na3VO4, 40 μM ATP and 1.25 μM of ATF2 and in the absence or presence of 1% human serum albumin, Method I and II, respectively, with 0.4-6 ng of protein depending on the kinase used. Compounds are serially diluted in DMSO and 2 μL of test compound at 25× final concentration is used. The vehicle control receives DMSO only. Test compounds are pre-incubated with 20 μl of enzyme in kinase buffer (25 mM HEPES, pH 7.5, 10 mM MgCl2, 2 mM DTT, 20 mM β-glycerophosphate, 0.1 mM Na3VO4 in the absence or presence of 1% human serum albumin, Method I and II, respectively) at room temperature for 15 minutes. […] The reactions are incubated for 30 minutes at 37° C. and terminated by the addition of 18 μl of 200 mM EDTA. An ELISA method (I or II) is used to measure the phosphorylation of ATF2 at Thr 69. Method I: 96-well high binding plates (Corning 3369) are coated with 50 μl of kinase reaction for 1 hour at 37° C. The coated plates are washed with 200 μl washing buffer (25 mM Tris HCl, pH 8.3, 192 mM glycine, 0.1% SDS and 0.05% Tween-20) three times. The plates are then washed three times with SuperBlock in TBS (Pierce, 37535). After blocking, plates are incubated with 50 μl of rabbit anti-phospho-ATF2 antibody (Cell Signaling, 9221L, 1:500) for 30 minutes at 37° C. Plates are washed three times with washing buffer prior to incubation with 50 μl HRP-conjugated goat anti-rabbit antibody (Cell Signaling, 7074, 1:500) for 30 minutes at 37° C. Plates are then washed three times with washing buffer before incubation with 50 μl of Ultra TMB-ELISA (Pierce, 34028) for 8 minutes at room temperature. Finally, 50 ul of phosphoric acid (1 M) is added to stop reactions and plate absorbance is read at 450 nm on a SpectraMax 250 plate reader. Method II: 96-well high binding plates (Corning 3369) are coated with 400 ng of monoclonal antibody against GST-tag (Cell signaling) in 100 μl containing sodium borate (pH 8.3) for 90 minutes at 37° C. The plates are washed with 200 μl washing buffer (25 mM Tris HCl, pH 7.2, 150 mM NaCl and Tween-20) three times and blocked with 200 μl of 5% nonfat milk for 30 minutes at room temperature. The plates are washed three times with washing buffer, 50 μl of stopped kinase reaction are added to each well and incubated for 80 minutes at 37° C. The plates are washed three times with 200 μl washing buffer, and the plates are incubated with 50 μl of rabbit anti-phospho-ATF2 antibody (Cell Signaling, 9221L, 1:500) for 30 minutes at 37° C. Plates are washed three times with washing buffer prior to incubation with 50 μl HRP-conjugated goat anti-rabbit antibody (Cell Signaling, 7074, 1:500) for 30 minutes at 37° C. Plates are washed three times with washing buffer before incubation with 50 μl of Ultra TMB-ELISA (Pierce, 34028) for 25 minutes at room temperature. Finally, 50 μl of phosphoric acid (1 M) is added to stop reactions and plate absorbance is read at 450 nm on a SpectraMax 250 plate reader. […]

Row | Compound | IC50 | inhibition at 10 µM [%]
1 | CC(C)(C)C1CCC(Oc2cc(F)cc(C(=O)Nc3ccc(OCCN4CCOCC4)c4ccccc34)c2)CC1 (stereo not shown) [Compound B216] | > 10 µM | 
2 | O=C(Nc1ccc(OCCN2CCOCC2)c2ccccc12)c1cccc(-c2cc(Cl)cc(Cl)c2Cl)c1 [Compound B120] | > 100 µM | 39
3 | CCN(C)c1cccc(C(=O)Nc2ccc(OCCN3CCOCC3)c3ccccc23)n1 [Compound B148] |  | 15.5
4 | O=C(Nc1ccc(OCCN2CCOCC2)c2ccccc12)c1cc(C(F)(F)F)cc(C(F)(F)F)c1 [Compound B83] |  | 18
5 | CCN(C)c1cc(C(=O)Nc2ccc(OCCN3CCOCC3)c3ccccc23)cc(C)n1 [Compound B157] |  | 8
6 | CCOC(=O)N1CCN(CCOc2ccc(NC(=O)c3ccc(CN4CCS(=O)(=O)CC4)cc3)c3ccccc23)CC1 [Compound B16] |  | 27.5
7 | CCOC(=O)N1CCN(CCOc2ccc(NC(=O)c3cccc(N4CCOCC4)c3)c3ccccc23)CC1 [Compound B15] |  | 18
8 | O=C(Nc1ccc(OCCN2CCOCC2)c2ccccc12)c1cccc(N2CCC(CO)CC2)n1 [Compound B145] |  | 11
9 | O=C(Nc1ccc(OCCN2CCCCC2)c2ccccc12)c1ccnc(Cl)c1 [Compound B7] |  | 21
10 | O=C(Nc1ccc(OCCN2CCOCC2)c2ccccc12)c1cccc2ccccc12 [Compound B89] |  | 29
11 | O=C(Nc1ccc(OCCN2CCOCC2)c2ccccc12)c1cccc(N2CCOCC2)n1 [Compound B134] |  | 20
12 | Cc1ccc(-c2cccc(C(=O)Nc3ccc(OCCN4CCOCC4)c4ccccc34)c2)cc1 [Compound B93] | > 10 µM | 34
13 | CC1CCN(c2cccc(C(=O)Nc3ccc(OCCN4CCOCC4)c4ccccc34)n2)CC1 [Compound B143] | > 100 µM | 32
14 | CC1CCCN(c2cccc(C(=O)Nc3ccc(OCCN4CCOCC4)c4ccccc34)n2)C1 (stereo not shown) [Compound B69] |  | 34
15 | O=C(Nc1ccc(OCCN2CCOCC2)c2ccccc12)c1cccc(-c2ccc(Cl)cc2Cl)c1 [Compound B95] | 1.75 µM | 58
16 | Cc1cccc(C)c1N1CCN(c2cccc(C(=O)Nc3ccc(OCCN4CCOCC4)c4ccccc34)n2)CC1 [Compound B146] |  | 7.5
17 | O=C(Nc1ccc(OCCN2CCOCC2)c2ccccc12)c1cccc(-c2cc(Cl)cc(Cl)c2)c1 [Compound B96] | > 100 µM | 31
18 | CCCCc1ccc(-c2cccc(C(=O)Nc3ccc(OCCN4CCOCC4)c4ccccc34)c2)cc1 [Compound B117] |  | 4
19 | O=C(Nc1ccc(OCCN2CCOCC2)c2ccccc12)c1cccc(-c2cccc(Cl)c2)c1 [Compound B94] | 1.14 µM | 71
20 | O=C(Nc1ccc(OCCN2CCOCC2)c2ccccc12)c1cccc(-c2cccc(OCc3ccccc3)c2)c1 [Compound B119] | > 100 µM | 11
21 | CSc1ccccc1-c1cccc(C(=O)Nc2ccc(OCCN3CCOCC3)c3ccccc23)c1 [Compound B116] | 2.74 µM | 54
22 | Cc1cc(C(=O)Nc2ccc(OCCN3CCOCC3)c3ccccc23)cc(N2CCc3ccccc3C2)n1 [Compound B150] | > 100 µM | 15
23 | O=C1CN(CCOc2ccc(NC(=O)c3cc(F)cc(N4CCCCC4)c3)c3ccccc23)CCN1 [Compound B164, 3-Fluoro-N-{4-[2-(3-oxo-piperazin-1-yl)-ethoxy]-naphthalen-1-yl}-5-piperidin-1-yl-benzamide] | 0.436 µM and 0.306 µM | 83.5

Row | Compound | IC50 | inhibition at 10 µM [%]
24 | O=C(Nc1ccc(OCCN2CCOCC2)c2ccccc12)c1cccc(-c2ccc(C3CCCCC3)cc2)c1 [Compound B118] |  | 0
25 | CN1CCN(CCOc2ccc(NC(=O)c3ccnc(Cl)c3)c3ccccc23)CC1 [Compound B6] |  | 7.5
26 | O=C(Nc1ccc(OCCN2CCCCC2)c2ccccc12)c1ccnc(N2CCOCC2)c1 [Compound B22] |  | 12.5
27 | CN(c1cccc(C(=O)Nc2ccc(OCCN3CCOCC3)c3ccccc23)n1)C1CCCCC1 [Compound B137] | > 100 µM | 32
28 | O=C(Nc1ccc(OCCN2CCOCC2)c2ccccc12)c1cccc(-c2ccccc2Oc2ccccc2)c1 [Compound B115] |  | 10
29 | O=C(Nc1ccc(OCCN2CCOCC2)c2ccccc12)c1ccnc(N2CCC(CO)CC2)c1 [Compound B131] |  | 34
30 | O=C(Nc1ccc(OCCN2C(=O)c3ccccc3C2=O)c2ccccc12)c1cc(F)cc(N2CCOCC2)c1 [Compound B187] | > 10 µM | 
31 | CC(C)(C)c1ccc(-c2cccc(C(=O)Nc3ccc(OCCN4CCOCC4)c4ccccc34)c2)cc1 [Compound B106] |  | 0
32 | Cc1ccc(-c2cccc(C(=O)Nc3ccc(OCCN4CCOCC4)c4ccccc34)c2)c2ccccc12 [Compound B114] |  | 11.3
33 | O=C(Nc1ccc(OCCN2CCOCC2)c2ccccc12)c1cccc(-c2ccccc2C(F)(F)F)c1 [Compound B97] | > 10 µM | 31
34 | C[C@@H]1CN(CCOc2ccc(NC(=O)c3ccc(-n4cccn4)cc3)c3ccccc23)C[C@H](C)O1 [Compound B12] |  | 16.5
35 | CN1CCN(CCOc2ccc(NC(=O)c3ccc(CN4CCS(=O)(=O)CC4)cc3)c3ccccc23)CC1 [Compound B13] |  | 11.5
36 | C[C@@H]1CN(CCOc2ccc(NC(=O)c3ccnc(Cl)c3)c3ccccc23)C[C@H](C)O1 [Compound B8] |  | 36.5
37 | Cc1cc(C(=O)Nc2ccc(OCCN3CCOCC3)c3ccccc23)nn1C [Compound B79] |  | 1
38 | CC(C)c1cc(C(=O)Nc2ccc(OCCN3CCOCC3)c3ccccc23)c(O)c(C(C)C)c1 [Compound B76] |  | 0
39 | O=C(Nc1ccc(OCCN2CCOCC2)c2ccccc12)c1cccc(N2CCCCCCC2)n1 [Compound B135] | > 100 µM | 20
40 | O=C(Nc1ccc(OCCN2CCOCC2)c2ccccc12)c1ccc(CN2CCS(=O)(=O)CC2)cc1 [Compound B18] |  | 10.5
41 | COc1ccc(Cl)cc1-c1cccc(C(=O)Nc2ccc(OCCN3CCOCC3)c3ccccc23)c1 [Compound B111] | 5.06 µM | 50
42 | O=C(Nc1ccc(OCCN2CCOCC2)c2ccccc12)c1cccc(NCc2ccc(F)cc2)c1 [Compound B170] |  | 46
43 | CN(C)CCN(C)c1cc(F)cc(C(=O)Nc2ccc(OCCN3CCOCC3)c3ccccc23)c1 [Compound B68] |  | 10
44 | CC1CCCN1c1cccc(C(=O)Nc2ccc(OCCN3CCOCC3)c3ccccc23)n1 (stereo not shown) [Compound B144] |  | 17
45 | O=C(Nc1ccc(OCCN2CCOCC2)c2ccccc12)c1cccc(/C=C/c2ccccc2)c1 [Compound B98] | > 10 µM | 15
46 | O=C(Nc1ccc(OCCN2CCOCC2)c2ccccc12)c1cccc(N2CCC(Cc3ccccc3)CC2)n1 [Compound B140] |  | 4
